Source: patent US20250388582A1, “NOVEL BICYCLIC HETEROARYL COMPOUND AND USE THEREOF” (ILDONG PHARMACEUTICAL CO., LTD., priority 2022, published 2025)
pIC50: −log10 of the molar value.

Assays:
[1] = biological target: T1, human GST-PIKFYVE (Homo sapiens, UniProt Q9Y2I7); assay: ADP-Glo kinase assay, enzyme inhibition activity against human PIKFYVE (Carna biosciences); assay type: biochemical; details: inhibitory activity at final compound concentration 10 nM; 1 hour at room temperature
T1 construct: GST; purchased Carna biosciences 11-118
How it was run: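 Human GST-PIKFYVE (glutathione Sepharose-purified) was reacted with substrate and ATP for 1 h at room temperature in 50 mM MOPS, 1 mM DTT, pH 7.2, with compound at 10 nM final. ADP formed was read by ADP-Glo luminescence; inhibition was calculated against no-enzyme (100%) and no-compound (0%) controls.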

[2] = Microsomal metabolic stability assay; assay type: in vitro ADME, human or CD1 male mouse; details: Clint class; 1 μM compound, 0.5 mg/ml microsomes, NADPH, UDPGA, Alamethicin; species not given
Method: The microsomal metabolic stability assay was performed using pooled human or CD1 male mouse interspecies microsomes. Supplemental cofactors (NADPH, UDPGA) and microsomal membrane pore-forming factor (Alamethicin) were added to promote cytochrome P450 (CYP), UGT reactivity to the target compound. Test compounds (1 μM incubation concentration) and microsomes (0.5 mg/ml incubation concentration) were diluted in 0.1 M phosphate buffer, pH 7.4, and incubated (37° C.). The reaction was initiated by the addition of NADPH (1 mM), UDPGA (1 mM) and Alamethicin (25 μg/mg). The incubation times were 0, 5, 15, 30, and 45 minutes, and at each time point, the reaction was terminated by adding acetonitrile containing internal standard (IS)(1:3 ratio). The plate was then sealed, centrifuged (3000 rpm, 20 min, 4° C.), and the supernatant was analyzed by LC-MS/MS. Hepatic extraction ratio values were calculated from the measured in vitro clearance and Intrinsic clearance (Clint) values were calculated from the assay results, and the respective Clint values were categorized into Low, Medium, and High categories based on the reference document (ref. Prostaglandins & other lipid mediators 136 (2018): 90-95).

[3] = biological target: T2, PIKFYVE (Homo sapiens, UniProt Q9Y2I7); assay: NanoBRET TE Intracellular Kinase Assay, interaction of PIKFYVE and compounds in HEK293 cells; assay type: cell-based; details: IC50 class from BRET; HEK293 cells expressing PIKFYVE-NanoLuc; 2 hours incubation
T2 construct: host or cells: HEK293 (ATCC, CRL-1573)
How it was run: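 HEK293 cells transiently expressing a PIKFYVE-NanoLuc fusion were incubated 2 h at 37 °C, 5% CO2 with compound plus NanoBRET tracer. BRET was read after adding Nano-Glo substrate, giving intracellular target engagement by tracer displacement.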

T2 sequence (Q9Y2I7 whole entry): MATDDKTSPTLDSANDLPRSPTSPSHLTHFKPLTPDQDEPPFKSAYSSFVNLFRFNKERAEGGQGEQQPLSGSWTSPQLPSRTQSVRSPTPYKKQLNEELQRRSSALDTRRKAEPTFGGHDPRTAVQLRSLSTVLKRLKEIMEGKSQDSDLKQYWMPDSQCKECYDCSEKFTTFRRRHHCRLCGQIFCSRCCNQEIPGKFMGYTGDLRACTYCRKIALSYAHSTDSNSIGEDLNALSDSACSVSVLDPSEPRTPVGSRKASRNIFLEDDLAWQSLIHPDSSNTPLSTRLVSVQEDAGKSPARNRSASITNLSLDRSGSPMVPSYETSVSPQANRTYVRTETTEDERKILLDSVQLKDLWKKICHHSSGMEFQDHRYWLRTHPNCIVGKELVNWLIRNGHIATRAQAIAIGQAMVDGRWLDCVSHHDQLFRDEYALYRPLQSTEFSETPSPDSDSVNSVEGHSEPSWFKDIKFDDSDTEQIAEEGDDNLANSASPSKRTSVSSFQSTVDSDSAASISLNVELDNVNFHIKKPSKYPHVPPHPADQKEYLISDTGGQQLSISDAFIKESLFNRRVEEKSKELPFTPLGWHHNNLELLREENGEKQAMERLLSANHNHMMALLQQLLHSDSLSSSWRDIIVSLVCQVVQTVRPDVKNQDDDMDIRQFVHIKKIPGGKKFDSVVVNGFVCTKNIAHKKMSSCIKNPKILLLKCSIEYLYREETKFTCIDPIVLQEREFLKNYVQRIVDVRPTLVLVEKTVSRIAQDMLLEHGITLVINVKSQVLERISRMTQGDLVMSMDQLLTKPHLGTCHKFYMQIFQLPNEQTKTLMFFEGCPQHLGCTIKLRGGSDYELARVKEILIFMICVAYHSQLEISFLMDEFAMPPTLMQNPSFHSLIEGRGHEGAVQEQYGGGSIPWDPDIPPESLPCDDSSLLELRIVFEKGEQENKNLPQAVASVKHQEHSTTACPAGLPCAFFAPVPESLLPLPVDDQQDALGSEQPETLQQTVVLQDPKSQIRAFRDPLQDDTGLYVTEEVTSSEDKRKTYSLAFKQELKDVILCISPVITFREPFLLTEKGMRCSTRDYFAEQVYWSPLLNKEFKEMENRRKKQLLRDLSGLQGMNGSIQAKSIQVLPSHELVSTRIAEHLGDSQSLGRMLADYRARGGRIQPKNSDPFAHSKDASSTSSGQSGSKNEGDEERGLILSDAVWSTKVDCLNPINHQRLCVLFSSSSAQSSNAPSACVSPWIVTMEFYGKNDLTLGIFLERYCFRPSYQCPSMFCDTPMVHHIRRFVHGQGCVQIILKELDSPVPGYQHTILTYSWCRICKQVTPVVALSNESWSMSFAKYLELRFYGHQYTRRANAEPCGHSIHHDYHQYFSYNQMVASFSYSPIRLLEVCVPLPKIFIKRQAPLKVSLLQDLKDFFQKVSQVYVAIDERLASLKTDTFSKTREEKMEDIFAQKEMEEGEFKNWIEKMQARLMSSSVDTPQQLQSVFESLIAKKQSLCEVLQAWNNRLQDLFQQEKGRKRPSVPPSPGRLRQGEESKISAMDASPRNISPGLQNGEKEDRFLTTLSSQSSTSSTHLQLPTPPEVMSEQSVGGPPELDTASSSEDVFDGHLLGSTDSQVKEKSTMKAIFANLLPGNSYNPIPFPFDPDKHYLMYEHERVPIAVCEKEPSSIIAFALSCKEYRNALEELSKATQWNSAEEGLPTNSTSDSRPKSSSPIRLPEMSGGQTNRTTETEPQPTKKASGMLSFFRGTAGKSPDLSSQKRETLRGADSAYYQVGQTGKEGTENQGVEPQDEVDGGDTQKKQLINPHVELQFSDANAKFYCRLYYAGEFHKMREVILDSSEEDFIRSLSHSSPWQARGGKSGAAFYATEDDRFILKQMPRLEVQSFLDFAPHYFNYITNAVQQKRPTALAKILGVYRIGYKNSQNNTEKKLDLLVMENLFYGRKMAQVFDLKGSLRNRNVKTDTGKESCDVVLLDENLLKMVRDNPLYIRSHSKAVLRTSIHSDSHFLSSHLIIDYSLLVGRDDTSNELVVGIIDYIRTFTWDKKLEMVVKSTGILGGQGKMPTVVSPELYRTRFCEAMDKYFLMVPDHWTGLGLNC
T1 sequence (Q9Y2I7 whole entry): as above

Row | Compound | ADP-Glo kinase assay (%, 10 nM) [1] [%] | Microsomal metabolic stability [2] | pIC50 [3]
1 | O=C(Cn1cnc2c(N/N=C/c3c[nH]c4ccccc34)nc(N3CCOCC3)nc21)c1ccccn1 [Example 24, (E)-2-(6-(2-((1H-indol-3-yl)methylene)hydrazinyl)-2-morpholino-9H-purin-9-yl)-1-(pyridin-2-yl)ethan-1-one] | 72.15 | Medium (Medium 8.8~48,) | 7.70 to 8.00
2 | COc1ccc(C(=O)Cn2cnc3c(N/N=C/c4cccc(C)c4)nc(N4CCOCC4)nc32)cc1 [Example 39, (E)-1-(4-methoxyphenyl)-2-(6-(2-(3-methylbenzylidene)hydrazinyl)-2-morpholino-9H-purin-9-yl)ethan-1-one] | 74.99 | Medium (Medium 8.8~48,) | 7.70 to 8.00
3 | Cc1ccc(C(=O)Cn2cnc3c(N/N=C/c4cccc(C)c4)nc(N4CCOCC4)nc32)cc1 [Example 42, (E)-2-(6-(2-(3-methylbenzylidene)hydrazinyl)-2-morpholino-9H-purin-9-yl)-1-(p-tolyl)ethan-1-one] | 81.60 | Low (Low <8.8,) | ≥ 8.00
4 | Cc1cccc(/C=N/Nc2nc(N3CCOCC3)nc3c2ncn3CC(=O)c2ccccc2C(F)(F)F)c1 [Example 43, (E)-2-(6-(2-(3-methylbenzylidene)hydrazinyl)-2-morpholino-9H-purin-9-yl)-1-(2-(trifluoromethyl)phenyl)ethan-1-one] | 80.86 | Medium (Medium 8.8~48,) | ≥ 8.00
5 | Cc1cccc(/C=N/Nc2nc(N3CCOCC3)nc3c2ncn3CC(=O)c2ccccc2Cl)c1 [Example 48, (E)-1-(2-chlorophenyl)-2-(6-(2-(3-methylbenzylidene)hydrazinyl)-2-morpholino-9H-purin-9-yl)ethan-1-one] | 90.25 | Low (Low <8.8,) | ≥ 8.00
6 | Cc1cccc(-c2ccn(-c3nc(N4CCOCC4)nc4c3ncn4CC(=O)c3ccccn3)n2)c1 [Example 64, 2-(2-morpholino-6-(3-(m-tolyl)-1H-pyrazol-1-yl)-9H-purin-9-yl)-1-(pyridin-2-yl)ethan-1-one] | 82.48 | Medium (Medium 8.8~48,) | ≥ 8.00
7 | Cc1cccc(/C=N/Nc2nc(N3CCOCC3)nc3c2ncn3-c2cccnc2)c1 [Example 96, (E)-4-(6-(2-(3-methylbenzylidene)hydrazinyl)-9-(pyridin-3-yl)-9H-purin-2-yl)morpholine] | 85.95 | Medium (Medium 8.8~48,) | ≥ 8.00
8 | COc1cc(-n2cnc3c(N/N=C/c4cccc(C)c4)nc(N4CCOCC4)nc32)ccn1 [Example 101, (E)-4-(9-(2-methoxypyridin-4-yl)-6-(2-(3-methylbenzylidene)hydrazinyl)-9H-purin-2-yl)morpholine] | 91.20 | Low (Low <8.8,) | ≥ 8.00
9 | Cc1cccc(/C=N/Nc2nc(N3CCOCC3)nc3c2ncn3-c2cccnc2C)c1 [Example 109, (E)-4-(6-(2-(3-methylbenzylidene)hydrazinyl)-9-(2-methylpyridin-3-yl)-9H-purin-2-yl)morpholine] | 79.21 | Medium (Medium 8.8~48,) | 7.70 to 8.00
10 | Cc1cccc(/C=N/Nc2nc(N3CCOCC3)nc3c2ncn3-c2sc(C)nc2C)c1 [Example 111, (E)-4-(9-(2,4-dimethylthiazol-5-yl)-6-(2-(3-methylbenzylidene)hydrazinyl)-9H-purin-2-yl)morpholine] | 89.77 | Medium (Medium 8.8~48,) | ≥ 8.00
11 | COc1ccc(-n2cnc3c(N/N=C/c4cccc(C)c4)nc(N4CCOCC4)nc32)cc1 [Example 120, (E)-4-(9-(4-methoxyphenyl)-6-(2-(3-methylbenzylidene)hydrazinyl)-9H-purin-2-yl)morpholine] | 88.76 | medium | ≥ 8.00
